Assays:
[1] = system: peripheral blood lymphocyte; conditions: daily oral supplements (30 g), cited from earlier work
[2] = intraperitoneal, after 24 hour starvation, rats; cited from earlier work
[3] = 30 g daily in divided doses for 1 week, human; cited from earlier work
[4] = 1% in drinking water 6 days after the injury; cited from earlier work
C1300 neuroblastoma [5] = assay: Tumor growth and survival, C1300 neuroblastoma in protein malnourished mice; assay type: in vivo, A/J mice; conditions: for median survival: ARG p<0.001 compared with GLY and LPD (LPD, 29 days)
Method: (§3) The effects of supplemental arginine (ARG) in the malnourished tumor bearing host were evaluated. […] Body weight, tumor weight and carcass weight were measured weekly and duration of survival was recorded. On day 10, specific T cell cytotoxicity was measured; concanavalin A (con A) stimulation of thymocytes and mixed lymphocyte tumor cell culture (MLTC) were measured on days 14 (d14) and 21(d21) (n=5/group).

YAC targets = assay: Basal and Poly I:C-induced natural killer (NK) activity, 4 hour chromium release, mice on dietary supplement; assay type: in vivo, CBA/J mice; conditions: for NK(Induced) activity (% toxicity): Poly I:C-induced, * p,0.05 (ARG); for NK(Induced) activity (% toxicity) / NK(basal) activity (% toxicity): 1% dietary supplementation at least 10 days, YAC targets, 4 hour chromium release
Method: (§1) The effect of arginine on IL-2 dependent responses is shown by the following example. The effect of arginine on two IL-2 - dependent responses (T cell activation and cytotoxic T lymphocyte (CTL) development)and on interferon-influenced natural killer (NK) cell activity was evaluated.
(§2) CBA/J mice (n=100) received 1% arginine (ARG) dietary supplementation o isonitrogenous glycine (GLY) for al least 10 days. CTL development was determined by sensitizing mice to BALB/C spleen cell alloantigen in vivo (×3 immunizations) and measuring cytotoxicity against allolymphoblasts as targets. Basal and Poly I:C - induced NK activity was measured against YAC targets. Using indirect immunofluorescence, IL-2 receptor expression (M7/20) on purified splenic T cells was determined 24 and 48 hours after con A activation. Results are presented in Table 1 wherein data are expressed as % toxicity in a 4 hour Chromium release assay (CTL and NK cells only) and % expression (IL-2). (*p,0.05 Student's T test)

thymocytes = assay: Concanavalin A stimulation of thymocytes, C1300 tumor bearing protein malnourished mice; assay type: in vivo, A/J mice; conditions: mean ± SD, * p<0.001, low protein diet + 1% supplement
Method: as §3

C1300 neuroblastoma [6] = conditions: mouse, in vivo
Method: Body weight, tumor weight and carcass weight were measured weekly and duration of survival was recorded. On day 10, specific T cell cytotoxicity was measured; concanavalin A (con A) stimulation of thymocytes and mixed lymphocyte tumor cell culture (MLTC) were measured on days 14 (d14) and 21(d21) (n=5/group).

allolymphoblasts = assay: Cytotoxic T lymphocyte (CTL) development, 4 hour chromium release, mice on dietary supplement; assay type: in vivo, CBA/J mice; conditions: for CTL cytotoxicity (% toxicity): 1% dietary supplementation at least 10 days, 4 hour chromium release assay, * p,0.05 Student's t test (ARG)
Method: as §1, §2

[7] = Body weight and carcass weight, C1300 tumor bearing protein malnourished mice; assay type: in vivo, A/J mice; conditions: for total body weight and mean carcass weight: compared with LPD mice
Method: as §3

C1300 neuroblastoma [8] = assay: Mixed lymphocyte tumor cell culture (MLTC), C1300 tumor bearing protein malnourished mice; assay type: in vivo, A/J mice; conditions: for MLTC Stimulation Index (d21): day 21
Method: as §3

IL-2 receptor = IL-2 receptor expression (M7/20) on purified splenic T cells after con A activation, indirect immunofluorescence; assay type: in vivo, CBA/J mice; conditions: for IL 2 (24 hr) receptor expression (% expression): 24 hours after con A activation; for IL 2 (24 hr) receptor expression (% expression) / IL 2 (48 hr) receptor expression (% expression): * p,0.05 (ARG); for IL 2 (48 hr) receptor expression (% expression): 48 hours after con A activation
Method: as §1, §2

[9] = system: breast adenocarcinoma (C3HBA); conditions: rats; cited from earlier work
C3HBA tumors = conditions: supplemented after tumor excision, cited from earlier work
[10] = dietary supplement before and/or after wounding, rats; cited from earlier work
[11] = dietary arginine, young growing rat; cited from earlier work
[12] = given prior to or concomitantly with amino acids, glycine or ammonia; rats; cited from earlier work
[13] = humans, mainly liver disease; cited from earlier work
thymus = conditions: cited from earlier work
lymphocytes = conditions: in vitro incubation in media with higher amounts of arginine; cited from earlier work
[14] = mean ± SD, low protein diet + 1% supplement

Cl.N=C(N)NCCC[C@H](N)C(=O)O [arginine HCl]
peripheral blood lymphocyte blastogenesis ([1]; healthy volunteers): increased
time until blastogenesis effect is evident [1]: ≤ 3 days
LD50 [2]: 3800 mg/kg
untoward effects [3]: no untoward effects except for mild gastrointestinal discomfort
recovery [4]: 100%
weight loss after injury [4]: reversed the weight loss

NCC(=O)O [GLY, glycine, reference compound]
median survival (C1300 neuroblastoma [5]): 30 days
NK(Induced) activity (% toxicity) (YAC targets): 24 ± 14%
NK(basal) activity (% toxicity) (YAC targets): 13 ± 4%
ConA Stimulation Index (d21) (thymocytes; day 21): 24.9 ± 5
ConA Stimulation Index (thymocytes; first ConA column (d14 per text)): 38.4 ± 7
Cytotoxicity (C1300 neuroblastoma [6]): 15 ± 1.4%
CTL cytotoxicity (% toxicity) (allolymphoblasts): 54 ± 14%
total body weight and mean carcass weight [7]: significantly preserved
MLTC Stimulation Index (d14) (C1300 neuroblastoma [8]; day 14, mean ± SD, * p<0.001, low protein diet + 1% supplement): 3.3 ± 0.9
MLTC Stimulation Index (d21) (C1300 neuroblastoma [8]; [14]): 2.5 ± 0.8
IL 2 (24 hr) receptor expression (% expression) (IL-2 receptor): 30 ± 4%
IL 2 (48 hr) receptor expression (% expression) (IL-2 receptor): 46 ± 45%

N=C(N)NCCC[C@H](N)C(=O)O [ARG, arginine]
tumor appearance [9]: slowed tumor appearance
tumor incidence [9]: reducing tumor incidence
median survival (C1300 neuroblastoma [5]): 38 days
median survival, in words (C1300 neuroblastoma [5]; p<0.001 compared with GLY and LPD mice): prolonged
tumor growth (C1300 neuroblastoma [5]; p<0.05, compared with GLY and LPD mice): retarded tumor growth
NK(Induced) activity (% toxicity) (YAC targets): 43 ± 12%
NK(basal) activity (% toxicity) (YAC targets): 19 ± 5%
inducible NK activity, in words (YAC targets; supplemental arginine): significantly augmented
survival time of mice which subsequently developed tumors (C3HBA tumors): prolonged survival time
tumor recurrence rate (C3HBA tumors; without supplement 100% recurrence): 30%
CTL cytotoxicity (% toxicity) (allolymphoblasts): 69 ± 15%
CTL activity, in words (allolymphoblasts; supplemental arginine): significantly augmented
wound healing [10]: accelerated
growth [11]: more rapid growth
protection against toxic effects of hyperammonemia [12]: abrogated
therapeutic effect, elevated blood ammonia [13]: ranged from excellent to minimal
total body weight and mean carcass weight [7]: significantly preserved
host nutritional status ([7]; supplemental ARG): preserved
lymphocyte content of the thymic glands (thymus; in vivo): significant increases
thymic involution with injury (thymus; injured): minimizes the thymic involution
blastogenesis of the lymphocytes in response to mitogens (thymus; thymic): significant enhancement
thymic weight (thymus; uninjured rats and mice): increases thymic weight
MLTC Stimulation Index (d21) (C1300 neuroblastoma [8]; [14]): 2.2 ± 1.3
immune responses in tumor bearing protein malnourished mice (C1300 neuroblastoma [8]; supplemental ARG): augmented immune responses
blastogenic responses in vitro (lymphocytes): does not lead to greater blastogenic responses
IL 2 (24 hr) receptor expression (% expression) (IL-2 receptor): 52 ± 4%
IL 2 (48 hr) receptor expression (% expression) (IL-2 receptor): 59 ± 6%
IL-2 receptor kinetics, in words (IL-2 receptor; supplemental arginine): enhanced

NC(=O)NCCC[C@H](N)C(=O)O [citrulline, reference compound]
protection against toxic effects of hyperammonemia [12]: share the "detoxifying" effects of arginine

From US4883661A, “Use of arginine as an lymphokine synergist” (priority 1987, dated 1989)
